Structures can show the parent of a compound that is named as a salt. Where two headings read alike, the source gives them in different places.
Experiments:
[1] = test system: MX-1, DLD-1 and LNCap cells; assay: Cytotoxicity/growth inhibition assay, cell line not specified for the statement
Description: The human cancer cell lines DLD-1 (colorectal adenocarcinoma), LNCap (prostate carcinoma), and OVCAR-3 (ovarian carcinoma) were obtained from the American Type Culture Collection, Manassas, Va., U.S.A., and HL-60 (promyeloid myelocytic leukemia), MX-1 (breast carcinoma), P388, and P388ADR from the National Cancer Institute, Bethesda, Md., U.S.A. Carboplatin, doxorubicin, and melphalan were obtained from Sigma-Aldrich Chemical Company, St. Louis, Mo., U.S.A. The CellTiter-Glo assay kit was obtained from Promega Corporation, Madison, Wis., U.S.A., and the Cellular DNA Cytometric Analysis Reagent Kit from Roche Diagnostics Corporation, Indianapolis, Ind., U.S.A. Lambda DNA was obtained from New England Biolabs, Beverly, Mass., U.S.A., and SYBR-Gold from Molecular Probes, Inc., Eugene, Oreg., U.S.A. The DNeasy Tissue Kit was obtained from Qiagen Inc., Valencia, Calif., U.S.A., and AmpliTaq Gold DNA polymerase and PCR reagents from Applied Biosystems, Foster City, Calif., U.S.A. All products were used in accordance with manufacturer's directions. […] The extent of cell growth was expressed as a percentage of the signal from the solvent control wells.
Log-phase cells were trypsinized, collected by centrifugation, and resuspended in a small volume of fresh medium, and the density of viable cells was determined following Trypan Blue staining. […]

[2] = test system: DLD-1 (colorectal adenocarcinoma); assay: Cytotoxicity/growth inhibition assay, DLD-1; assay type: cell-based, human; settings: Homo sapiens, DLD-1, 96 h, read-out: IC50 (DLD-1)
Outline: (§1)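 Test compounds in DMSO (0.1–200 μM; final DMSO 0.5%) added to freshly diluted cells (3×10^3 cells/mL MX-1 and DLD-1, 6×10^3 cells/mL LNCap), triplicate wells. Cultured ~three doubling times (3 days MX-1, 4 days DLD-1/LNCap). CellTiter-Glo luminescence, 15 min room temperature; growth expressed as % of DMSO solvent control.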

[3] = test system: P388 murine leukemia cell line; assay: Cross-resistance assay; assay type: cell-based; settings: P388 vs doxorubicin-resistant derivative; cross-resistant if resistance ratio approximately 2 or higher
Description: (§2) The human cancer cell lines DLD-1 (colorectal adenocarcinoma), LNCap (prostate carcinoma), and OVCAR-3 (ovarian carcinoma) were obtained from the American Type Culture Collection, Manassas, Va., U.S.A., and HL-60 (promyeloid myelocytic leukemia), MX-1 (breast carcinoma), P388, and P388ADR from the National Cancer Institute, Bethesda, Md., U.S.A. Carboplatin, doxorubicin, and melphalan were obtained from Sigma-Aldrich Chemical Company, St. Louis, Mo., U.S.A. The CellTiter-Glo assay kit was obtained from Promega Corporation, Madison, Wis., U.S.A., and the Cellular DNA Cytometric Analysis Reagent Kit from Roche Diagnostics Corporation, Indianapolis, Ind., U.S.A. Lambda DNA was obtained from New England Biolabs, Beverly, Mass., U.S.A., and SYBR-Gold from Molecular Probes, Inc., Eugene, Oreg., U.S.A. The DNeasy Tissue Kit was obtained from Qiagen Inc., Valencia, Calif., U.S.A., and AmpliTaq Gold DNA polymerase and PCR reagents from Applied Biosystems, Foster City, Calif., U.S.A. All products were used in accordance with manufacturer's directions. All assays were conducted in triplicate wells, with dimethyl sulfoxide (DMSO) solvent control. The extent of cell growth was expressed as a percentage of the signal from the solvent control wells.

[4] = test system: MX-1 (human breast cancer) tumor; assay: MX-1 xenograft assay, intraperitoneal administration; assay type: in vivo, athymic nu/nu mice; settings: for activity in MX-1 xenograft assay: 100 mg/Kg intraperitoneal once/day for 5, 9, or 14 days; for tumor inhibition / dose dependence of tumor inhibition: intraperitoneal; for dose dependence of tumor inhibition: range of doses and treatment times
Experimental: (§3) Female athymic nu/nu mice (Harlan, Indianapolis, Ind., U.S.A. or similar vendor), 6-8 weeks old (approximately 20 g), were implanted in the mammary fat pad of the right fore flank with 20-30 mg pieces of MX-1 (human breast cancer) tumor harvested from similar mice that had previously been implanted with the MX-1 tumor. Approximately 7-10 days after tumor transplantation, when the tumor weight was approximately 50-200 mg, the mice were assigned to treatment groups. […] All compounds were active in this assay, with tumor growth inhibition compared to vehicle between 5% (compound 171A) and 99% (compound 13A), with most compounds causing at least 30% tumor growth inhibition. […] Compound 13A was tested at 25, 50, or 100 mg/Kg for 5 or 9 days, causing tumor inhibition between 19% (25 mg/Kg for 5 days) and 99% (100 mg/Kg for 9 days). Compound 70A was tested at 50, 100, and 150 mg/Kg for 5 or 12 days, causing tumor inhibition between 16% (50 mg/Kg for 5 days) and 95% (150 mg/Kg for 12 days).

[5] = test system: HCT116 (human colon cancer) tumor; assay: HCT116 xenograft assay, intraperitoneal administration; assay type: in vivo, athymic nu/nu mice
Experimental: Male athymic nu/nu mice, 6-8 weeks old (approximately 20 g), were implanted subcutaneously in the right fore flank with 20-30 mg pieces of HCT116 (human colon cancer) tumor harvested from similar mice that had previously been implanted with the HCT116 tumor. Approximately 7-10 days after tumor transplantation, when the tumor weight was approximately 50-200 mg, the mice were assigned to treatment groups. Groups of mice were treated with compounds 5A or 13A at 100 mg/Kg, or compound 70A at 150 mg/Kg, by intraperitoneal injection once/day for 11 days, with vehicle control. Tumor growth inhibition was measured 13 days after the start of treatment.

[6] = test system: MiaPaCa-2 (human pancreatic cancer) tumor; assay: MiaPaCa-2 xenograft assay, oral administration; assay type: in vivo, athymic nu/nu mice; settings: 200 mg/Kg for 7 days
DLD-1 cells = assay: Cell cycle analysis; assay type: cell-based, human; settings: approximately IC75-85, one and two days, propidium iodide FACS
[7] = test system: MiaPaCa-2 (human pancreatic cancer) tumor; assay: MiaPaCa-2 xenograft assay, intraperitoneal administration; assay type: in vivo, athymic nu/nu mice; settings: 100 mg/Kg intraperitoneal once/day for 14 days
Experimental: Male athymic nu/nu mice, 6-8 weeks old (approximately 20 g), were implanted subcutaneously in the right fore flank with 20-30 mg pieces of MiaPaCa-2 (human pancreatic cancer) tumor harvested from similar mice that had previously been implanted with the MiaPaCa-2 tumor. Approximately 7-10 days after tumor transplantation, when the tumor weight was approximately 50-200 mg, the mice were assigned to treatment groups. Groups of mice were treated with compound 13A or 70A at 100 mg/Kg by intraperitoneal injection once/day for 14 days, with vehicle control. Tumor growth inhibition was measured 15 days after the start of treatment.

[8] = test system: MX-1 (human breast cancer) tumor; assay: MX-1 xenograft assay, oral administration; assay type: in vivo, athymic nu/nu mice
Experimental: as §3
A study similar to that described in In vivo Example 1 was performed using oral administration of compounds 13A and 70A. Groups of mice were treated with compound 13A at 50, 100, or 300 mg/Kg, or compound 70A at 100, 150, 200, or 250 mg/Kg, by gavage once/day for 5 days (with vehicle control). Tumor growth inhibition was measured 13 days after the start of treatment.

MX-1 (breast carcinoma) = assay: Cytotoxicity/growth inhibition assay, MX-1; assay type: cell-based, human; settings: Homo sapiens, MX1, 72 h, read-out: IC50 (MX-1)
Outline: as §1

Lambda DNA = assay: DNA damage assay; assay type: biochemical; settings: 100 μM and 300 μM, room temperature, one day, PCR amplification
OVCAR-3 cell line = assay: Synergism assay; assay type: cell-based, human
Description: as §2

[9] = test system: M7609 engineered to have high, medium, and low levels of GST P1-1; settings: murine xenografts; cited from earlier work
[10] = test system: ovarian, breast, non-small cell lung, and colorectal cancers; settings: cited from earlier work
[11] = test system: in vitro cell culture and tumor biopsies; settings: cited from earlier work
[12] = test system: MCF-7 human breast carcinoma cell line selected for resistance to cyclophosphamide; settings: overexpresses GST P1-1; cited from earlier work
[13] = test system: M6709 human colon carcinoma cell line selected for resistance to doxorubicin; settings: overexpresses GST P1-1; cited from earlier work

With `O=P(OCCSCCOP(=O)(N(CCCl)CCCl)N(CCCl)CCCl)(N(CCCl)CCCl)N(CCCl)CCCl` [Compound 1CC, di[2-[[bis[bis(2-chloroethyl)amino]phosphinyl]oxy]ethyl]sulfide] the “activity in cytotoxicity/growth inhibition assay” value [1] was “active”.

With `N[C@@H](CS(=O)(=O)CCOP(=O)(N(CCCl)CCCl)N(CCCl)CCCl)C(=O)O` [Compound 70A, 3-[[2-[[bis[bis(2-chloroethyl)amino]phosphinyl]oxy]ethyl]sulfonyl]-L-alanine] the IC50 [2] was 10.7 µM, the cross-resistance with doxorubicin [3] was “not cross-resistant” and the “activity in MX-1 xenograft assay” value [4] was “active”. For the same compound, the tumor inhibition ([4]; 50 mg/Kg for 5 days) was 16%, the tumor inhibition ([4]; 150 mg/Kg for 12 days) was 95% and the “dose dependence of tumor inhibition” value [4] was “dose-dependent tumor inhibition”. The “inhibition of tumor growth compared to vehicle” value (“inhibition … compared to vehicle” for short) ([5]; 150 mg/Kg intraperitoneal once/day for 11 days, measured 13 days after start) was 26%, the “activity in HCT116 xenograft assay” value ([5]; intraperitoneal once/day for 11 days) was “active” and the “activity in MiaPaCa-2 xenograft assay, oral” value [6] was “active”. For the same compound, the “inhibition of tumor growth” value [6] was 27%, the “cell cycle effect (G2/M cycle block)” value (DLD-1 cells) was “induced a G2/M cycle block” and the “activity in MiaPaCa-2 xenograft assay” value [7] was “active”. For the same compound, the “inhibition … compared to vehicle” value ([7]; measured 15 days after start) was 38%, the “inhibition … compared to vehicle” value ([8]; 100 mg/Kg gavage once/day for 5 days, measured 13 days after start) was 36% and the “inhibition … compared to vehicle” value ([8]; 250 mg/Kg gavage once/day for 5 days, measured 13 days after start) was 96%. The “activity in MX-1 xenograft assay, oral” value ([8]; gavage once/day for 5 days) was “active”, the “dose dependence of tumor inhibition, oral” value ([8]; gavage once/day for 5 days, measured 13 days after start) was “dose-dependent tumor inhibition” and the IC50 (MX-1 (breast carcinoma)) was 36.7 µM. The DNA damage activity (Lambda DNA) was “only marginal DNA damage activity”.

With `O=P(OCCS(=O)(=O)Cc1ccccc1)(N(CCCl)CCCl)N(CCCl)CCCl` [Compound 128A, α-[[2-[[bis[bis(2-chloroethyl)amino]phosphinyl]oxy]ethyl]sulfonyl]toluene] the IC50 [2] was 3.2 µM, the cross-resistance with doxorubicin [3] was “not cross-resistant” and the “activity in MX-1 xenograft assay” value [4] was “active”. The “dose dependence of tumor inhibition” value [4] was “dose-dependent tumor inhibition”, the “cell cycle effect (G2/M cycle block)” value (DLD-1 cells) was “induced a G2/M cycle block” and the synergism with carboplatin (OVCAR-3 cell line) was “synergistic”. It also gave an IC50 (MX-1 (breast carcinoma)) of 4.5 µM.

In the case of `N[C@@H](CCC(=O)N[C@@H](CS(=O)(=O)CCOP(=O)(N(CCCl)CCCl)N(CCCl)CCCl)C(=O)N[C@@H](C(=O)O)c1ccccc1)C(=O)O` [canfosfamide hydrochloride], the “potency versus level of GST P1-1” value [9] is given as “positively correlated with the level of GST P1-1”, the clinical activity ([10]; colorectal and breast cancer) is given as “single agent antitumor activity” and the “incidence of clinically significant hematological toxicity” value ([10]; patients treated) is given as “very low incidence”. For the same compound, the clinical activity ([10]; patients with non-small cell lung cancer and ovarian cancer) was “significant single agent antitumor activity and improvement in survival”.

In the case of `N[C@@H](CCC(=O)N[C@@H](CS(=O)(=O)CCOP(=O)(N(CCCl)CCCl)N(CCCl)CCCl)C(=O)N[C@@H](C(=O)O)c1ccccc1)C(=O)O` [canfosfamide, L-γ-glutamyl-3-[[2-[[bis[bis(2-chloroethyl)amino]phosphinyl]oxy]ethyl]sulfonyl]-L-alanyl-2phenyl-(2R)-glycine], the “cross-resistance to platinum, paclitaxel, doxorubicin and gemcitabine” value [11] is given as “non-cross-resistant”, the “cell cycle effect (G2/M cycle block)” value (DLD-1 cells) is given as “induced a G2/M cycle block” and the synergism with carboplatin (OVCAR-3 cell line) is given as “synergistic”. For the same compound, the “potency in resistant line over parental cell line” value [12] was “more potent”, the DNA damage activity (Lambda DNA) was “only marginal DNA damage activity” and the “potency in resistant line over parental cell line” value [13] was “more potent”.
